From BindingDB's records for doi:10.1016/j.bmcl.2019.04.009 (Wannan Medical College, 2019)

Molecular target: Epidermal growth factor receptor (Homo sapiens, UniProt P00533)
Experiment: Inhibition of EGFR L858R mutant (unknown origin) using polyE4Y1 as substrate measured after 60 mins

Epidermal growth factor receptor, sequence (P00533 25-1210 L858R limits assumed): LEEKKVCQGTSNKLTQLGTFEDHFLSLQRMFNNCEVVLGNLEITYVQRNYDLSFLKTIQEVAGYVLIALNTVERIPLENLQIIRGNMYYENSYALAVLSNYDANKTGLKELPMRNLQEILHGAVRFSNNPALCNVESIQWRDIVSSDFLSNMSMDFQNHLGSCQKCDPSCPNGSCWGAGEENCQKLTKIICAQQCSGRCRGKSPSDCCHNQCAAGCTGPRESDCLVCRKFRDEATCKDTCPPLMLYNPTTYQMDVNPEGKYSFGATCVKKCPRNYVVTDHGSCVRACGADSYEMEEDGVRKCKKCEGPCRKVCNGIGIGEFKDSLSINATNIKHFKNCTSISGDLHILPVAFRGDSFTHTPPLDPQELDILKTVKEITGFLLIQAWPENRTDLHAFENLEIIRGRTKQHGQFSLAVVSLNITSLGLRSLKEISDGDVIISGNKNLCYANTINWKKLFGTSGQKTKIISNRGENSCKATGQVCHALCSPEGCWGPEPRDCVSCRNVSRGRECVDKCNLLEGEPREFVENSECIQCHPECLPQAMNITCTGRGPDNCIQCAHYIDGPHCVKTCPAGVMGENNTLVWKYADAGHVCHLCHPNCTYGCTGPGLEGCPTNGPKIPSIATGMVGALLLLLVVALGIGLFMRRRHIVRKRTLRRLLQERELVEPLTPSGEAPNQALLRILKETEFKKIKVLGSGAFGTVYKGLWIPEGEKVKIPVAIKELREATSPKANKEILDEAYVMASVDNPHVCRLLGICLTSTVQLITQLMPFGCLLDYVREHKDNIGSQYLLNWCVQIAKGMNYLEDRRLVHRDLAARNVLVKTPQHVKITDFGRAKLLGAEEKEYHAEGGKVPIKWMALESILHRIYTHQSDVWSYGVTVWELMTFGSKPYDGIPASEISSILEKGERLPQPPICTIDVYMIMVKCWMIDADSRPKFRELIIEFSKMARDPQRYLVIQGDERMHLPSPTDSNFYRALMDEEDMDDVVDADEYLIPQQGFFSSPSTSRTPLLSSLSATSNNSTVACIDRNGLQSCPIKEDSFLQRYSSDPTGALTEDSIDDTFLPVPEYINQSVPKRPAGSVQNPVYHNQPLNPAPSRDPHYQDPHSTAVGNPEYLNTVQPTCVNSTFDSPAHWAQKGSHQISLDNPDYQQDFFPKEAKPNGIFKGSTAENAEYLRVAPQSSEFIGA

- IC50: 56 nM
Compound: C[C@H]1[C@H](C)CC[C@]2(C(=O)O)CC[C@]3(COC(=O)/C=C/c4ccc(O)cc4)C(=CC[C@@H]4[C@@]5(C)CC[C@H](O)C(C)(C)[C@@H]5CC[C@]43C)[C@H]12 [27-trans-p-coumaroyloxyursolic acid]
